From PubChem BioAssay (NCI)
Where “and” joins values, the source holds several entries; their conditions need not be identical. Equal values may be shown once.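 Protocol summary: plate cells (96-well), add compound at 5 concentrations, incubate 48 h, interpolate endpoints linearly. Abbreviation: GI50, concentration required for 50% inhibition of growth. At the TGI there is no net growth.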

What was measured:
Test in all cases: growth of human tumour cells (NCI), 48 h
RXF 393 renal = tested on: RXF 393 renal
HOP-62 NSCLC = tested on: HOP-62 NSCLC
SN12C renal = tested on: SN12C renal
NCI-H226 lung = tested on: NCI-H226 lung
HCT-15 colon = tested on: HCT-15 colon
NCI-H460 lung = tested on: NCI-H460 lung
SF-268 CNS = tested on: SF-268 CNS
HT29 colon = tested on: HT29 colon

Structure (SMILES) | GI50 (RXF 393 renal) | TGI (RXF 393 renal) | GI50 (HOP-62 NSCLC) | TGI (HOP-62 NSCLC) | GI50 (SN12C renal) | TGI (SN12C renal) [µM] | GI50 (NCI-H226 lung) | TGI (NCI-H226 lung) | GI50 (HCT-15 colon) | TGI (HCT-15 colon) [µM] | GI50 (NCI-H460 lung) | TGI (NCI-H460 lung) | GI50 (SF-268 CNS) | TGI (SF-268 CNS) | GI50 (HT29 colon) | TGI (HT29 colon)
CC(c1ccccc1)[C@@H](C(=O)Nc1ccc(I)cc1F)N1C(=O)N[C@H](c2ccc(OC[C@H](O)CO)cc2)C1=O (some centres undefined) | 4.2 µM | > 22.6 µM | 17 µM | > 25 µM | 6.14 µM | > 25 | 14.5 µM | > 25 µM | 11.4 µM | > 25 | > 14.6 µM | > 25 µM | 15.2 µM | > 25 µM | 0.0683 µM | > 25 µM
CCN(CC)CCN1C(=O)C2C3C(=O)CC(C)(CC3C)C2C1=O (centres undefined) | > 100 µM | > 100 µM | > 100 µM | > 100 µM | > 100 µM | > 100 | > 100 µM | > 100 µM | > 100 µM | > 100 |  |  | > 100 µM | > 100 µM | > 100 µM | > 100 µM
Cc1ccc(Cl)cc1NC(=O)c1cc2ccccc2cc1O | 0.55 µM | 2.23 µM | 0.224 µM | 0.673 µM | 0.265 µM | 1.92 | 0.417 µM | 3.1 µM | 0.506 µM |  | 0.376 µM | 2.28 µM | 0.426 µM | > 32.6 µM | 3.37 µM | 14.2 µM
COc1ccc(Cl)cc1Nc1nc(C(F)(F)F)ccc1C(=O)N/N=C/c1cccnc1 |  |  | 5.22 µM | 75 µM | 7.78 µM | > 100 | 3.49 µM | > 100 µM | 1.42 µM | > 100 | 4.03 µM | > 100 µM | 2.52 µM | 61.5 µM | 6.01 µM | > 100 µM
Nc1nnnc2nc[nH]c12 | 1.35 µM | > 100 µM | 0.907 µM | > 58 µM | 2.25 µM | > 100 | 1.05 µM | 4.86 µM | 2.64 µM | > 100 | 2.46 µM | > 100 µM | 3.19 µM | > 100 µM | 3.79 µM | > 100 µM
COc1cccc(C2=C(c3cn(C)c4cc(F)ccc34)C(=O)NC2=O)c1 | 8.79 µM | > 25 µM | > 25 µM | > 25 µM | > 21.5 µM | > 25 | > 18.8 µM | > 25 µM | 12.7 µM | > 25 | > 18.6 µM | > 25 µM | > 22.2 µM | > 25 µM | 8.35 µM | > 25 µM
Nc1cc(C(F)(F)F)c(-c2cc(N3CCOCC3)nc(N3CCOCC3)n2)cn1 | 0.561 µM and 0.65 µM | 2.83 µM and 3.26 µM | 0.385 µM and 0.793 µM | 4.31 µM and 4.87 µM | 1.27 µM and 1.61 µM | > 100 | 0.839 µM and 0.592 µM | 4.42 µM and 4.6 µM | 0.523 µM and 0.826 µM | > 41.1 | 0.646 µM and 0.451 µM | 7.27 µM and 12.4 µM | 0.925 µM and 1.42 µM | > 9.53 µM and 7.1 µM | 0.547 µM and 0.531 µM | > 7.41 µM and 3.66 µM
C(=Nc1cnc2ccccc2c1)c1ccc2ccccc2n1 |  | > 100 µM |  | > 100 µM |  | > 100 |  | > 100 µM |  | > 100 |  | > 100 µM |  | > 100 µM |  | > 100 µM
C=C1C(=O)O[C@H]2[C@H]1CC/C(Cn1cc(-c3cccc(Cl)c3)nn1)=C\CC[C@@]1(C)O[C@@H]21 | 0.558 µM | 1.85 µM | 1.94 µM | 3.68 µM | 1.4 µM | 3.35 | 1.71 µM | 3.75 µM | 0.192 µM | 0.479 | 2.13 µM | 4.52 µM | 1.59 µM | 3.46 µM | 0.51 µM | 1.73 µM
O=Cc1c(-c2ccccc2)[nH]c2ccccc2c1=O |  |  |  | > 100 µM |  | > 100 |  | > 100 µM |  | > 100 |  | > 100 µM |  | > 100 µM |  | > 100 µM
Cc1nc(-c2cnc(NC(C)C)n(C)c2=O)ccc1Oc1ccnc(-c2cnn(C)c2)c1 | 10.7 µM | 44 µM | 12.7 µM | > 100 µM | 19.7 µM | > 100 | 14.9 µM | 99.1 µM | 5.51 µM | > 100 | 13.2 µM | > 100 µM | 23 µM | > 100 µM | 5.28 µM | 68 µM
COc1ccccc1/C=C/C1=C(C)CCC(c2ccccc2OC)C1C (centres undefined) | 0.11 µM |  | 0.153 µM | 19.3 µM | 0.323 µM | > 100 | 0.223 µM | 0.627 µM | 0.129 µM | > 100 | 0.278 µM | 1.27 µM | 0.201 µM | > 73 µM | 0.167 µM | 
COC(=O)C1(C)CC2C(C)(CCC3(C)C4=CC=C5C(=CC(=O)C(O)=C5C)C4(C)CCC23C)CC1O (centres undefined) |  | 1.37 µM |  | 3.51 µM |  | 3.33 |  | 4.46 µM |  |  |  |  |  | 2.63 µM |  | 2.53 µM
CC[C@]1(O)CC2CN(CCc3c([nH]c4ccccc34)[C@@](C(=O)OC)(c3cc4c(cc3OC)N(C=O)[C@H]3[C@@](O)(C(=O)OC)[C@H](OC(C)=O)[C@]5(CC)C=CCN6CC[C@]43[C@@H]65)C2)C1 (some centres undefined) | < 0.005 µM | > 50 µM | 0.0054 µM | > 44.2 µM | < 0.005 µM | > 50 | < 0.005 µM | 0.0319 µM |  | > 50 | < 0.005 µM | > 50 µM | < 0.005 µM | > 50 µM | < 0.005 µM | 0.0195 µM
CCOc1ccc2c(c1)CN(Cc1ccc(Cl)cc1)CO2 | 13.8 µM | 29.3 µM | 26.2 µM | > 100 µM | 25.9 µM | > 100 | 30.3 µM | > 100 µM | 16.5 µM | 34.1 | 16 µM | 32.4 µM | 28.1 µM | > 100 µM | 20.3 µM | 40.4 µM
COc1cccc(/C=C/c2ccnc3ccccc23)c1OC |  | > 10 µM |  | > 10 µM |  | > 10 |  | > 10 µM |  | > 10 |  | > 10 µM |  | > 10 µM |  | > 10 µM
C/C(=N/O)c1ccc2c(c1)/C(=N/O)c1ccccc1-2 | 21.3 µM | 44.8 µM | 25 µM | 56.4 µM | 19.8 µM | 44.5 | 22.2 µM | 49.7 µM | 17.1 µM | 33.7 | 21.1 µM | 46.4 µM | 32.2 µM | > 100 µM | 18.2 µM | 40.7 µM
